Experiments:
Format in all cases: cell-based
Lovo cells (G13D) = experiment: Cell viability assay (CellTiter-Glo), Lovo cells; settings: Homo sapiens, 72 h; Lovo cells, 3 days incubation, CellTiter-Glo luminescence; read-out: Inhibition of Cancerous Cells IC50 Lovo (G13D)
Outline: (§1)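 Luminescence readout (CellTiter-Glo, 10 min with shaking) after 3-day compound or DMSO exposure at 37 °C. H358/SW48 in RPMI 1640, Lovo/SW480 in DMEM, assay medium with 2.5% FBS; Lovo seeded at 4,000 or 1,000 cells/well versus 2,000 or 500 for others.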

SW480 cells (G12V) = experiment: Cell viability assay (CellTiter-Glo), SW480 cells; settings: Homo sapiens, 72 h; SW480 cells, 3 days incubation, CellTiter-Glo luminescence; read-out: Inhibition of Cancerous Cells IC50 SW480 (G12V)
Outline: as §1

SW48 cells (wt) = experiment: Cell viability assay (CellTiter-Glo), SW48 cells; settings: Homo sapiens, 72 h; SW48 cells, 3 days incubation, CellTiter-Glo luminescence; read-out: Inhibition of Cancerous Cells IC50 SW48 (wt)
Outline: as §1

AsPC-1 cells (G12D) = experiment: Cell viability assay (CellTiter-Glo), AsPC-1 cells; settings: Homo sapiens, ASPC1, 72 h, 3 days incubation, CellTiter-Glo luminescence, read-out: Inhibition of Cancerous Cells IC50 AsPC-1 (G12D)
Procedure: H358, H23, SW48, and AsPC-1 cells were cultured in RPMI 1640 media supplemented with 10% fetal bovine serum, streptomycin, and penicillin. Lovo and SW480 cells were cultured in DMEM media supplemented with 10% fetal bovine serum, streptomycin, and penicillin. The cell lines were plated in their respective medium supplemented with 2.5% fetal bovine serum, streptomycin, and penicillin. All cell lines were plated in white walled 96-well plates at 2,000 cells/well or 384-well plates at 500 cells/well, except Lovo, which were plated at 4,000 or 1,000 cells/well, respectively. The cells were incubated in DMSO (control) or a compound for 3 days at 37° C. under 5% CO2. A CELLTITER-GLO® reagent (100 μL) was then added to each well. After a 10 min incubation with shaking, luminescence was measured using an ENVISION® multimode plate reader.

H358 cells (G12C) = experiment: Cell viability assay (CellTiter-Glo), H358 cells; settings: Homo sapiens, NCI-H358, 72 h; H358 cells, 3 days incubation, CellTiter-Glo luminescence; read-out: Inhibition of Cancerous Cells IC50 H358 (G12C)
Outline: as §1

Compound	IC50 (Lovo cells (G13D))	IC50 (SW480 cells (G12V))	IC50 (SW48 cells (wt))	IC50 (AsPC-1 cells (G12D))	IC50 (H358 cells (G12C))
COc1cc2c(N[C@H](C)c3cccc(Br)c3)nc(C)nc2cc1OCCCCCN1CCN(C(=O)CNc2cc3c(cc2F)C(=O)N(C2CCC(=O)NC2=O)C3)CC1 (stereo partly drawn) [Compound A32, 3-(5-((2-(4-(5-((4-(((R)-1-(3-Bromophenyl)ethyl)amino)-6-methoxy-2-methyl-quinazolin-7-yl)oxy)pentyl)piperazin-1-yl)-2-oxoethyl)amino)-6-fluoro-1-oxoisoindolin-2-yl)-piperidine-2,6-dione]	60 nM	4400 nM	470 nM	> 10000 nM	> 10000 nM
COc1cc2c(N[C@H](C)c3cccc(Br)c3)nc(C)nc2cc1OCCCCCCN1CCN(CCCc2cc3c(cc2F)C(=O)N(C2CCC(=O)NC2=O)C3)CC1 (stereo partly drawn) [Compound A42, 3-(5-(3-(4-(6-((4-(((R)-1-(3-Bromophenyl)ethyl)amino)-6-methoxy-2-methyl-quinazolin-7-yl)oxy)hexyl)piperazin-1-yl)propyl)-6-fluoro-1-oxoisoindolin-2-yl)piperidine-2,6-dione]	520 nM	480 nM	1000 nM	1400 nM	890 nM
COc1cc2c(N[C@H](C)c3cccc(Br)c3)nc(C)nc2cc1OCCCCCCN1CCN(CC#Cc2cc3c(cc2F)C(=O)N(C2CCC(=O)NC2=O)C3)CC1 (stereo partly drawn) [Compound A43, 3-(5-(3-(4-(6-((4-(((R)-1-(3-Bromophenyl)ethyl)amino)-6-methoxy-2-methyl-quinazolin-7-yl)oxy)hexyl)piperazin-1-yl)prop-1-yn-1-yl)-6-fluoro-1-oxoisoindolin-2-yl)-piperidine-2,6-dione]	340 nM	440 nM	620 nM	830 nM	1300 nM
COc1cc2c(N[C@H](C)c3cccc(Br)c3)nc(C)nc2cc1OCCCN1CCC2(CC1)CCN(c1cc3c(cc1F)C(=O)N(C1CCC(=O)NC1=O)C3)CC2 (stereo partly drawn) [Compound A44, 3-(5-(9-(3-((4-(((R)-1-(3-Bromophenyl)ethyl)amino)-6-methoxy-2-methyl-quinazolin-7-yl)oxy)propyl)-3,9-diazaspiro[5.5]undecan-3-yl)-6-fluoro-1-oxoisoindolin-2-yl)piperidine-2,6-dione]	530 nM	440 nM	610 nM	980 nM	1200 nM
COc1cc2c(N[C@H](C)c3cccc(Br)c3)nc(C)nc2cc1OCCCCCCCCCNc1cccc2nc(C)n(C3CCC(=O)NC3=O)c(=O)c12 (stereo partly drawn) [Compound A45, 3-(5-((9-((4-(((R)-1-(3-Bromophenyl)ethyl)amino)-6-methoxy-2-methyl-quinazolin-7-yl)oxy)nonyl)amino)-2-methyl-4-oxoquinazolin-3(4H)-yl)piperidine-2,6-dione]	1200 nM	900 nM	2000 nM	5200 nM	2300 nM
COc1cc2c(N[C@H](C)c3cccc(Br)c3)nc(C)nc2cc1OCCCCCCCCCCCNc1cccc2nc(C)n(C3CCC(=O)NC3=O)c(=O)c12 (stereo partly drawn) [Compound A46, 3-(5-((11-((4-(((R)-1-(3-Bromophenyl)ethyl)amino)-6-methoxy-2-methyl-quinazolin-7-yl)oxy)undecyl)amino)-2-methyl-4-oxoquinazolin-3(4H)-yl)piperidine-2,6-dione]	990 nM	720 nM	2700 nM	> 10000 nM	> 10000 nM
COc1cc2c(N[C@H](C)c3cccc(Br)c3)nc(C)nc2cc1OCCCCCCCNc1cccc2nc(C)n(C3CCC(=O)NC3=O)c(=O)c12 (stereo partly drawn) [Compound A47, 3-(5-((7-((4-(((R)-1-(3-Bromophenyl)ethyl)amino)-6-methoxy-2-methyl-quinazolin-7-yl)oxy)heptyl)amino)-2-methyl-4-oxoquinazolin-3(4H)-yl)piperidine-2,6-dione]	910 nM	740 nM	1400 nM	3700 nM	3000 nM
COc1cc2c(N[C@H](C)c3cccc(Br)c3)nc(C)nc2cc1OCCCCCCC(=O)N1CCC(c2cc(F)cc3c2CN(C2CCC(=O)NC2=O)C3=O)CC1 (stereo partly drawn) [Compound A59, 3-(4-(1-(7-((4-(((R)-1-(3-Bromophenyl)ethyl)amino)-6-methoxy-2-methyl-quinazolin-7-yl)oxy)heptanoyl)piperidin-4-yl)-6-fluoro-1-oxoisoindolin-2-yl)piperidine-2,6-dione]	4900 nM	4700 nM	5300 nM	> 10000 nM	> 10000 nM
COc1cc2c(N[C@H](C)c3cccc(Br)c3)nc(C)nc2cc1OCCCCCCC(=O)N1CCC(c2cc3c(cc2F)C(=O)N(C2CCC(=O)NC2=O)C3)CC1 (stereo partly drawn) [Compound A60, 3-(5-(1-(7-((4-(((R)-1-(3-Bromophenyl)ethyl)amino)-6-methoxy-2-methyl-quinazolin-7-yl)oxy)heptanoyl)piperidin-4-yl)-6-fluoro-1-oxoisoindolin-2-yl)piperidine-2,6-dione]	4300 nM	4000 nM	3800 nM	8400 nM	> 10000 nM
COc1cc2c(N[C@H](C)c3cccc(Br)c3)nc(C)nc2cc1OCCCCCCCCC(=O)N1CCC(c2cc(F)cc3c2CN(C2CCC(=O)NC2=O)C3=O)CC1 (stereo partly drawn) [Compound A61, 3-(4-(1-(9-((4-(((R)-1-(3-Bromophenyl)ethyl)amino)-6-methoxy-2-methyl-quinazolin-7-yl)oxy)nonanoyl)piperidin-4-yl)-6-fluoro-1-oxoisoindolin-2-yl)piperidine-2,6-dione]	6600 nM	5200 nM	5900 nM	> 10000 nM	> 10000 nM
COc1cc2c(N[C@H](C)c3cccc(Br)c3)nc(C)nc2cc1OCCCCCCCCCCNc1cccc2c1CN(C1CCC(=O)NC1=O)C2=O (stereo partly drawn) [Compound A62, 3-(4-((10-((4-(((R)-1-(3-Bromophenyl)ethyl)amino)-6-methoxy-2-methyl-quinazolin-7-yl)oxy)decyl)amino)-1-oxoisoindolin-2-yl)piperidine-2,6-dione]	4000 nM	1300 nM	2400 nM	> 10000 nM	> 10000 nM
COc1cc2c(N[C@H](C)c3cccc(Br)c3)nc(C)nc2cc1OCCCCCC(=O)N(C)Cc1scc2c1CN(C1CCC(=O)NC1=O)C2=O (stereo partly drawn) [Compound A63, 6-((4-(((R)-1-(3-Bromophenyl)ethyl)amino)-6-methoxy-2-methylquinazolin-7-yl)oxy)-N-((5-(2,6-dioxopiperidin-3-yl)-4-oxo-5,6-dihydro-4H-thieno[3,4-c]pyrrol-1-yl)methyl)-N-methylhexanamide]	< 14 nM	650 nM	20 nM	3500 nM	130 nM
COc1cc2c(N[C@H](C)c3cccc(Br)c3)nc(C)nc2cc1OCCCCCCCCCCCCc1scc2c1CN(C1CCC(=O)NC1=O)C2=O (stereo partly drawn) [Compound A64, 3-(1-(12-((4-(((R)-1-(3-Bromophenyl)ethyl)amino)-6-methoxy-2-methyl-quinazolin-7-yl)oxy)dodecyl)-4-oxo-4H-thieno[3,4-c]pyrrol-5(6H)-yl)piperidine-2,6-dione]	2600 nM	3100 nM	1200 nM	5500 nM	> 10000 nM
